Activity, inhibition and IC50 data for 13 compounds are collected here from ChEMBL document CHEMBL3046266, “Synthesis of curcumin and ethylcurcumin bioconjugates as potential antitumor agents” (Med Chem Res, 2012).

The structures appear in SMILES notation. The source made the active and inactive calls. No cut-off for these calls is given here.

The subject of one data set is SK-OV-3. Nature of the data set: Cytotoxicity against Homo sapiens (human) SKOV3 cells up to 25 uM by neutral red staining. Type of data set: functional, cell-based.
In data set [1] the target is T1, DNA topoisomerase 1 (Homo sapiens) (UniProt P11387).
T1 sequence (whole entry): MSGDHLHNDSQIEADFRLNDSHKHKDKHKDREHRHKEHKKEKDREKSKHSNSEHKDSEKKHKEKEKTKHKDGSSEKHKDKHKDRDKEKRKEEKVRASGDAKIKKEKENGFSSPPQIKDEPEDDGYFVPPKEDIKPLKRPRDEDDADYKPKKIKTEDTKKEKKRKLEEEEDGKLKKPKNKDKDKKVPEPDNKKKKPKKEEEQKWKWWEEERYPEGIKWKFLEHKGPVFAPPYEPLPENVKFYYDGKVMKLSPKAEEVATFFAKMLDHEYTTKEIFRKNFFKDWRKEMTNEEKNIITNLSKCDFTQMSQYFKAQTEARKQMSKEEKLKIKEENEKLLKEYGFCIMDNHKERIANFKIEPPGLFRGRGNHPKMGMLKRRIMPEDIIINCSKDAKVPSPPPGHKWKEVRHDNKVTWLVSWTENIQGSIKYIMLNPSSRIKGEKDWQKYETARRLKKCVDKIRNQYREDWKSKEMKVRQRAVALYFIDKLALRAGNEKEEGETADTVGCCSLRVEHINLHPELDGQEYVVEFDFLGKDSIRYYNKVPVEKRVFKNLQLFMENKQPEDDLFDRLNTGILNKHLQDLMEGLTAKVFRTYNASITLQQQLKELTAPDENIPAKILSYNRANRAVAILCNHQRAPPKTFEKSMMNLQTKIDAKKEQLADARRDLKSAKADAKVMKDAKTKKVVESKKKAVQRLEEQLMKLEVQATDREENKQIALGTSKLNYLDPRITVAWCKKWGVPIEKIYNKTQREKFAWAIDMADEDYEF
Description: Inhibition of Homo sapiens (human) topoisomerase 1 assessed as relaxation of supercoiled DNA up to 25 uM by agarose gel electrophoresis.

Data set [2] relates to KB. Nature of the data set: Cytotoxicity against Homo sapiens (human) KB cells up to 25 uM by neutral red staining. Type of data set: functional, cell-based.
Data set [3] has as its system BT-549. Nature of the data set: Cytotoxicity against Homo sapiens (human) BT549 cells up to 25 uM by neutral red staining. It is filed as functional, cell-based.
The subject of data set [4] is SK-MEL. Description: Cytotoxicity against Homo sapiens (human) SK-MEL cells up to 25 uM by neutral red staining. Type of data set: functional, cell-based.
A further data set has as its system LLC-PK1. Nature of the data set: Cytotoxicity against Sus scrofa (pig) LLC-PK1 cells up to 25 uM by neutral red staining. It is filed as cell-based.
Data set [5] has as its target DNA topoisomerase 2-alpha (Homo sapiens, UniProt P11388). Nature of the data set: Inhibition of Homo sapiens (human) topoisomerase 2 assessed as decatenation of KDNA by agarose gel electrophoresis.
A further data set has as its system Vero. Description: Cytotoxicity against Chlorocebus aethiops (African green monkey) Vero cells up to 25 uM by neutral red staining. It is filed as cell-based. Particulars: chlorocebus sabaeus.
For data set [6], the target named is T1, DNA topoisomerase 1 (Homo sapiens). Nature of the data set: Inhibition of Homo sapiens (human) topoisomerase 1 assessed as production of nicked DNA up to 25 uM by agarose gel electrophoresis.
For data set [7], the system named is KB. Nature of the data set: Cytotoxicity against Homo sapiens (human) KB cells by neutral red staining. Type of data set: functional, cell-based.
The test system of data set [8] is BT-549. Nature of the data set: Cytotoxicity against Homo sapiens (human) BT549 cells by neutral red staining. Type of data set: functional, cell-based.
Data set [9] concerns SK-MEL. Description: Cytotoxicity against Homo sapiens (human) SK-MEL cells by neutral red staining. Type of data set: functional, cell-based.

Sequence of DNA topoisomerase 2-alpha (P11388 whole entry): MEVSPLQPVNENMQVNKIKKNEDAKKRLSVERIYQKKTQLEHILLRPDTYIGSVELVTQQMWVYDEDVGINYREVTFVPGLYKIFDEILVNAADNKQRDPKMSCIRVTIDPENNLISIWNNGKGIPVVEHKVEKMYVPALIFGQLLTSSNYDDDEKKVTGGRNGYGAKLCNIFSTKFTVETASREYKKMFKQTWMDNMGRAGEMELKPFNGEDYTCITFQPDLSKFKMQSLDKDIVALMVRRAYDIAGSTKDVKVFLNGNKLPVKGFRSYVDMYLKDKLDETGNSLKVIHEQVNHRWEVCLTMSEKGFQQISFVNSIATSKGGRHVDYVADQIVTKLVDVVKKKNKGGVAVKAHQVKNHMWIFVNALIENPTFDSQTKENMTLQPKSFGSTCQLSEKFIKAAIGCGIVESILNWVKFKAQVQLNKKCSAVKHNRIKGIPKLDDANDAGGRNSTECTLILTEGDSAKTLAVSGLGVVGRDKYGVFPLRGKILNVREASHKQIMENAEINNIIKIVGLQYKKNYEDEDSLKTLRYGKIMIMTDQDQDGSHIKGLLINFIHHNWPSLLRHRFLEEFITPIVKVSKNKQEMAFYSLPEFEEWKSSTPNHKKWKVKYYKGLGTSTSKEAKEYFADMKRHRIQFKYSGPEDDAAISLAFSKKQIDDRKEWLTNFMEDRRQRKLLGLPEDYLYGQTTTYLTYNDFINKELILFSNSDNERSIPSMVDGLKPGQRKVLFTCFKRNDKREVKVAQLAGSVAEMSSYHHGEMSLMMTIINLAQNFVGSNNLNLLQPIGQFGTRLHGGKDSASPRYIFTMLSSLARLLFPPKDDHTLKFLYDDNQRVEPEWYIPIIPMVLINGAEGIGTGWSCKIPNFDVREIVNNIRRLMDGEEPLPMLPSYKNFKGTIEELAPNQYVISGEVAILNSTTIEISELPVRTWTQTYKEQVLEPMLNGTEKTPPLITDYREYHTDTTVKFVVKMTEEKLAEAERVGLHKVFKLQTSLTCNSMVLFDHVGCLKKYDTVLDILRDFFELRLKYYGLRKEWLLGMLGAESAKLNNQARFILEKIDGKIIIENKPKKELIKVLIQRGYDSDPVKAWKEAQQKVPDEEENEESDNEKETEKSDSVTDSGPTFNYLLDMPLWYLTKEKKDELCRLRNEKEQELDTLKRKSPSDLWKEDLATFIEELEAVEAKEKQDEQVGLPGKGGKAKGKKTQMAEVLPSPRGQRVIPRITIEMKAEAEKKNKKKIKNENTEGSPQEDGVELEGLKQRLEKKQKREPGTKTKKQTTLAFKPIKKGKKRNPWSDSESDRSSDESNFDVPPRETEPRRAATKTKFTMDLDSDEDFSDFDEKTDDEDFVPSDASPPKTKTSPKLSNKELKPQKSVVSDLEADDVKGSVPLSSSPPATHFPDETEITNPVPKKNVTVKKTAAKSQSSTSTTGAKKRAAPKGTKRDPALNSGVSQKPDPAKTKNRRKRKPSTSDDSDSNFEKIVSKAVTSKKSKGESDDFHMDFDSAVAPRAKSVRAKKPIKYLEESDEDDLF

In the case of `CCOc1cc(/C=C/C(=O)CC(=O)/C=C/c2ccc(OC(=O)c3cccs3)c(OCC)c2)ccc1OC(=O)c1cccs1` [DI-O-(2-THIENOYL)ETHYLCURCUMIN], the result in the data set with SK-OV-3, in the data set with KB [2], in the data set on BT-549 [3] and in the data set on SK-MEL [4] was inactive. For the same compound, the inhibition entry in data set [1] and in [6] was “inactive” each time. Further, the Activity result in the data set with LLC-PK1 and in the data set on Vero was “Non-toxic” each time. Also, in data set [5], the half-maximal inhibitory concentration (IC50) is 23 µM.
Consider `COc1cc(/C=C/C(=O)CC(=O)/C=C/c2ccc(OC(=O)CCNC34CC5CC(CC(C5)C3)C4)c(OC)c2)ccc1OC(=O)CCNC12CC3CC(CC(C3)C1)C2`, for which the outcome in the data set with SK-OV-3 was inactive. In addition, the inhibition result in data set [1] and in data set [6] was “inactive” in each case. For the same compound, the IC50 in the data set with KB [7] was over 25 µM; in the data set with BT-549 [8], 20.5 µM; in data set [5], 18 µM; in the data set on SK-MEL [9], 18.5 µM. Also, the Activity result in the data set on LLC-PK1 and in the data set with Vero was “Non-toxic” throughout.
In the case of `CCOc1cc(/C=C/C(=O)CC(=O)/C=C/c2ccc(OC(=O)CCl)c(OCC)c2)ccc1OC(=O)CCl` [DI-O-CHLOROACETYLETHYL CURCUMIN], the outcome in the data set with SK-OV-3, with KB [2], in the data set on BT-549 [3] and in the data set with SK-MEL [4] was inactive. Besides, the inhibition result in data set [1] and in [6] was “inactive” in each case. The Activity entry in the data set on LLC-PK1 and with Vero was “Non-toxic” in each case. Also, the IC50 in data set [5] amounted to 12 µM.
In the case of `CCOc1cc(/C=C/C(=O)CC(=O)/C=C/c2ccc(OC(=O)CCNCCN(CC)CC)c(OCC)c2)ccc1OC(=O)CCNCCN(CC)CC`, the outcome in the data set with SK-OV-3, in the data set with KB [2], in the data set on BT-549 [3] and in the data set with SK-MEL [4] was inactive. For the same compound, the inhibition result in data set [1] and in data set [6] was “inactive” throughout. For the same compound, the Activity entry in the data set on LLC-PK1 and with Vero was “Non-toxic” each time. The half-maximal inhibitory concentration (IC50) in [5] worked out at 7.1 µM.
In the case of `COc1cc(/C=C/C(=O)CC(=O)/C=C/c2ccc(OC(=O)CNCCCl)c(OC)c2)ccc1OC(=O)CNCCCl`, the outcome in the data set with SK-OV-3, in the data set on KB [2], in the data set on BT-549 [3] and in the data set with SK-MEL [4] was inactive. Also, the inhibition result in data set [1] and in data set [6] was “inactive” throughout. In addition, the Activity result in the data set on LLC-PK1 and with Vero was “Non-toxic” each time. Moreover, in data set [5], the IC50 came out at 0.35 µM.
Consider `CCOc1cc(/C=C/C(=O)CC(=O)/C=C/c2ccc(O)c(OCC)c2)ccc1O` [ETHYL CURCUMIN], for which the result with SK-OV-3 was inactive. The inhibition result in [1] and in data set [6] was “inactive” throughout. Further, the IC50 was over 25 µM in the data set on KB [7], 18 µM in the data set on BT-549 [8], 7.5 µM in data set [5] and 16 µM with SK-MEL [9]. Further, the Activity entry in the data set on LLC-PK1 and in the data set on Vero was “Non-toxic” in each case.
`CCOc1cc(/C=C/C(=O)CC(=O)/C=C/c2ccc(OC(=O)CCNC34CC5CC(CC(C5)C3)C4)c(OCC)c2)ccc1OC(=O)CCNC12CC3CC(CC(C3)C1)C2`: the outcome in the data set with SK-OV-3, in the data set on BT-549 [3] and in the data set on SK-MEL [4] was inactive. For the same compound, the inhibition entry in data set [1] and in data set [6] was “inactive” each time. Further, the IC50 in the data set on KB [7] was 15 µM; in [5], 2.1 µM. Moreover, the Activity entry in the data set on LLC-PK1 and in the data set on Vero was “Non-toxic” each time.
Consider `CCOc1cc(/C=C/C(=O)CC(=O)/C=C/c2ccc(OC(=O)CCCl)c(OCC)c2)ccc1OC(=O)CCCl` [DI-O-CHLOROPROPIONYLETHYL CURCUMIN], for which the result with SK-OV-3, in the data set on KB [2], in the data set on BT-549 [3] and in the data set with SK-MEL [4] was inactive. Also, the inhibition entry in [1] and in data set [6] was “inactive” throughout. Besides, the Activity entry in the data set with LLC-PK1 and in the data set with Vero was “Non-toxic” each time. Also, the IC50 in data set [5] came to 20 µM.
As to `CCCCCCC(=O)Oc1ccc(/C=C/C(=O)CC(=O)/C=C/c2ccc(OC(=O)CCCCCC)c(OC)c2)cc1OC` [DI-O-HEPTANOYLCURCUMIN], the outcome with SK-OV-3, in the data set on KB [2], with BT-549 [3] and with SK-MEL [4] was inactive. The inhibition result in [1] and in data set [6] was “inactive” in each case. The Activity result in the data set on LLC-PK1 and in the data set with Vero was “Non-toxic” throughout. Also, the IC50 in data set [5] was found to be 2.9 µM.
As for `COc1cc(/C=C/C(=O)CC(=O)/C=C/c2ccc(OC(=O)CNC34CC5CC(CC(C5)C3)C4)c(OC)c2)ccc1OC(=O)CNC12CC3CC(CC(C3)C1)C2`, in the data set on SK-OV-3, the outcome was inactive. Moreover, the inhibition entry in data set [1] and in data set [6] was “inactive” in each case. In addition, the half-maximal inhibitory concentration (IC50) in the data set with KB [7] is over 25 µM; with BT-549 [8] it was 19.4 µM; in data set [5], 4 µM; with SK-MEL [9] it was 15 µM. Besides, the Activity entry in the data set on LLC-PK1 and in the data set with Vero was “Non-toxic” each time.
As for `COc1cc(/C=C/C(=O)CC(=O)/C=C/c2ccc(O)c(OC)c2)ccc1O` [CURCUMIN], the outcome in the data set on SK-OV-3 was inactive. Further, the inhibition entry in data set [1] and in data set [6] was “inactive” throughout. Moreover, the IC50 with KB [7] was over 25 µM; with BT-549 [8], 10.5 µM; in data set [5], 15 µM; with SK-MEL [9] it was 13.8 µM. Further, the Activity entry with LLC-PK1 and in the data set on Vero was “Non-toxic” throughout.
Consider `COc1cc(/C=C/C(=O)CC(=O)/C=C/c2ccc(OC(=O)CCl)c(OC)c2)ccc1OC(=O)CCl` [DI-O-CHLOROACETYLCURCUMIN], for which the result with SK-OV-3 was inactive. The inhibition result in [1] and in [6] was “inactive” in each case. Besides, the IC50 with KB [7] was over 25 µM; in the data set on BT-549 [8] it was 10 µM; in data set [5] it was 20 µM; in the data set with SK-MEL [9], 12.5 µM. The Activity entry in the data set with LLC-PK1 and in the data set with Vero was “Non-toxic” throughout.
In the case of `COc1ccc2nc(NCCC(=O)Oc3ccc(/C=C/C(=O)CC(=O)/C=C/c4ccc(OC(=O)CCNc5nc6ccc(OC)cc6s5)c(OC)c4)cc3OC)sc2c1`, the result in the data set on SK-OV-3 was inactive. The inhibition result in data set [1] and in data set [6] was “inactive” throughout. Moreover, the half-maximal inhibitory concentration (IC50) in the data set with KB [7] was over 25 µM; with BT-549 [8], 23.8 µM; in [5], 19 µM; in the data set with SK-MEL [9], 23.8 µM. The Activity result in the data set on LLC-PK1 and in the data set on Vero was “Non-toxic” each time.

As a reminder, the IC50 is the midpoint of a concentration-inhibition curve.
